Experimental data: ChEMBL document CHEMBL1201862, “PubChem BioAssay data set” (2004)
Active and inactive are the calls of the source.

What was measured:
Orexin receptor type 2 [1] = target: T1, Orexin receptor type 2 (Homo sapiens, UniProt O43614); test: Counterscreen assay for antagonists of the orexin 1 receptor (OX1R; HCRTR1): Homogeneous Time Resolved Fluorescence (HTRF)-based cell-based dose response assay for antagonists of the orexin 2 receptor (OX2R; HCRTR2), run by assay provider.; assay type: functional
Orexin receptor type 2 [2] = target: T1, Orexin receptor type 2; test: Counterscreen assay for antagonists of the orexin 1 receptor (OX1R; HCRTR1): Fluorescence-based cell-based dose response assay for antagonists of the orexin 2 receptor (OX2R; HCRTR2), run by assay provider.; assay type: functional
[3] = target: T2, Orexin/Hypocretin receptor type 1 (Homo sapiens, UniProt O43613); test: (§1) Fluorescence-based cell-based high throughput dose response assay for antagonists of the orexin 1 receptor (OX1R; HCRTR1). [Related pubchem assays (depositor defined):AID434989, AID435008, AID463079, AID485270, AID492963, AID492964, AID492965, AID493232, AID504717, AID504718]; assay type: functional
CHO-K1 = test: (§2) Counterscreen for antagonists of the orexin 1 receptor (OX1R; HCRTR1): Homogeneous time resolved fluorescence (HTRF)-based cell-based dose response assay to identify antagonists of the parental CHO-K1 cell line. [Related pubchem assays (depositor defined):AID434989, AID435008, AID463079, AID485270, AID492963, AID492964, AID492965, AID493232, AID504699, AID504701]; assay type: functional; conditions: Cricetulus griseus
[4] = target: T2, Orexin/Hypocretin receptor type 1; test: as §1, with “Homogeneous Time Resolved Fluorescence (HTRF)-based” for “Fluorescence-based”; assay type: functional
[5] = as §2, with “Fluorescence-based” for “Homogeneous time resolved fluorescence (HTRF)-based”, “cell-based high throughput” for “cell-based”, “CHO” for “CHO-K1”; assay type: functional
[6] = target: T3, High affinity choline transporter 1 (Homo sapiens, UniProt Q9GZV3); test: CHT activators, dose response, cell-based, 10-point CRC, membrane potential dye (AID 602376); assay type: functional
T3 sequence (Q9GZV3 whole entry): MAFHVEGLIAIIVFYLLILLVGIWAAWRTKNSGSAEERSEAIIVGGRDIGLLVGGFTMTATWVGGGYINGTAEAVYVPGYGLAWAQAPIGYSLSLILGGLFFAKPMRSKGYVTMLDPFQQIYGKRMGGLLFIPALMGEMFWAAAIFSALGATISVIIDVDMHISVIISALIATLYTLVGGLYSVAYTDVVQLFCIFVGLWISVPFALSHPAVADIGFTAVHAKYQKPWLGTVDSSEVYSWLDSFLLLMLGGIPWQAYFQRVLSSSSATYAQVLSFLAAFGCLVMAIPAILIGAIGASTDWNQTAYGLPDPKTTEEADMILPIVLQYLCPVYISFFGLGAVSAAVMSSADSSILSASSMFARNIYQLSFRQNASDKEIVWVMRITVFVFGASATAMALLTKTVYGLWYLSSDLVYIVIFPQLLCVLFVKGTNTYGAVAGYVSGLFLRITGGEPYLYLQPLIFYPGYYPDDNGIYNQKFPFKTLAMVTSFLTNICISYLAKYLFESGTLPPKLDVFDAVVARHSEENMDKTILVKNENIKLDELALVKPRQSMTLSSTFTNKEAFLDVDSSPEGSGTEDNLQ

[7] = target: Glycogen synthase kinase-3 beta (Homo sapiens, UniProt P49841); test: Inhibition of Human GSK-3 beta Activity Measured in Biochemical System Using Microfluidics - 2063-05_Inhibitor_Dose_DryPowder_Activity_Set2. [Related pubchem assays (depositor defined):AID2709]
[8] = target: Cyclin-dependent kinase 5/CDK5 activator 1 (Homo sapiens, UniProt Q00535); test: CDK5-p25 kinase inhibitors, specificity check, dose response, selectivity assay for GSK-3 alpha inhibitor project, biochemical, microfluidic mobility shift, dry powder (AID 588430)
[9] = system: Streptococcus sp. 'group A'; test: growth inhibition of control SK(-) GAS strain, dose response, counter-screen for streptokinase expression inhibitor project, luminescence, kanamycin, BacTiterGlo, confirmation (AID 1900); assay type: functional, organism-based
[10] = target: Glycogen synthase kinase-3 alpha (Homo sapiens, UniProt P49840); test: Inhibition of Human GSK-3 alpha Activity Measured in Biochemical System Using Microfluidics - 2063-06_Inhibitor_Dose_DryPowder_Activity_Set2. [Related pubchem assays (depositor defined):AID2709]
Streptokinase A = target: T4, Streptokinase A (Streptococcus pyogenes serotype M1, UniProt P10520); test: S. pyogenes streptokinase expression inhibitors, potency, dose response, plasminogen activation absorbance, OD405 (AID 1914); assay type: functional, Streptococcus pyogenes M1 GAS;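 note: secreted streptokinase activity via plasminogen activation per viability signal from cell pellet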
T4 sequence (P10520 whole entry): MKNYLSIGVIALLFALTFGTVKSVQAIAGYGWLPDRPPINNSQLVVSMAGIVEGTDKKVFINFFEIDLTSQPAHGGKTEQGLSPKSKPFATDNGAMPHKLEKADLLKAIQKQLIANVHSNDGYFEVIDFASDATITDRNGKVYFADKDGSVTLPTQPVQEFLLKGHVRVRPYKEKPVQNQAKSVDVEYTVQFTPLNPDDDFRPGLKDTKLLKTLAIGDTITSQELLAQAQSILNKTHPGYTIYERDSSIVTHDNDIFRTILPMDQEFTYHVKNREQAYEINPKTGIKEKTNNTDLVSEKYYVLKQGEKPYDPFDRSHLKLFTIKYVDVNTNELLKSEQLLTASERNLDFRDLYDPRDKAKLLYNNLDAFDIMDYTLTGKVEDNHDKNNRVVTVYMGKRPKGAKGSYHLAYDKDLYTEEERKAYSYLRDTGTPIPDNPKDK

Streptococcus = test: Group A Streptococcus viability loss, dose response, counter-screen for streptokinase expression inhibitor project, luminescence, BacTiterGlo (AID 1915); assay type: functional, organism-based;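 note: potency for reduction of bacterial viability or growth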
[11] = Luminescence Cell-Based Dose Retest to Confirm Inhibitors of Cancer Stem Cells. [Related pubchem assays (depositor defined):AID2717, AID2721]; assay type: functional; conditions: Homo sapiens
Activin receptor type-1 = Activin receptor type-1 (Homo sapiens, UniProt Q04771); test: Navigating the Kinome. Panel member name: ACVR1; assay type: functional
[12] = target: Dual specificity protein kinase CLK4 (Homo sapiens, UniProt Q9HAZ1); assay type: functional
Sequence of Dual specificity protein kinase CLK4 (Q9HAZ1 whole entry): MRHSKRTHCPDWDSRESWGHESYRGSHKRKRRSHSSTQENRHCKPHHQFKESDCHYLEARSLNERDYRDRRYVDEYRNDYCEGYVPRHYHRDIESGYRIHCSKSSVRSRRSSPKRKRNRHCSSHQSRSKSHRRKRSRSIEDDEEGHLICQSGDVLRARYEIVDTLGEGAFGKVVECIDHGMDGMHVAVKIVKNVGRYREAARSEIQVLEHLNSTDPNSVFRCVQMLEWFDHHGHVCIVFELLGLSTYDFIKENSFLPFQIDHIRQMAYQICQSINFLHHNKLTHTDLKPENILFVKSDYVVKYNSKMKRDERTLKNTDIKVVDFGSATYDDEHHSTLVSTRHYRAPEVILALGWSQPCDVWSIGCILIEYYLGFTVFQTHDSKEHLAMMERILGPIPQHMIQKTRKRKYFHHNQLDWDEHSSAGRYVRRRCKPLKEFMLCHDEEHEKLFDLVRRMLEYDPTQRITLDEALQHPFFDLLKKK

T2 sequence (O43613 whole entry): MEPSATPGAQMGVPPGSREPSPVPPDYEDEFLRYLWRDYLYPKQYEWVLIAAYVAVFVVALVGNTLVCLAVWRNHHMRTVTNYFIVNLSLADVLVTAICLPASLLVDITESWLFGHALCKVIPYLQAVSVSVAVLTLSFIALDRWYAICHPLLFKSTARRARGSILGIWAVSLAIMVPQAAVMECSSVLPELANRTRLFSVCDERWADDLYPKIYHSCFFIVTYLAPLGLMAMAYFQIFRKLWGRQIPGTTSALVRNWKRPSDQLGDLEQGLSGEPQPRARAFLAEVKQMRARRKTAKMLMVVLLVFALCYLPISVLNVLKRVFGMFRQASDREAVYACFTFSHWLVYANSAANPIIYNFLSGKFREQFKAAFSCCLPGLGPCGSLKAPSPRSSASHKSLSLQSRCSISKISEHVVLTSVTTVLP
T1 sequence (O43614 whole entry): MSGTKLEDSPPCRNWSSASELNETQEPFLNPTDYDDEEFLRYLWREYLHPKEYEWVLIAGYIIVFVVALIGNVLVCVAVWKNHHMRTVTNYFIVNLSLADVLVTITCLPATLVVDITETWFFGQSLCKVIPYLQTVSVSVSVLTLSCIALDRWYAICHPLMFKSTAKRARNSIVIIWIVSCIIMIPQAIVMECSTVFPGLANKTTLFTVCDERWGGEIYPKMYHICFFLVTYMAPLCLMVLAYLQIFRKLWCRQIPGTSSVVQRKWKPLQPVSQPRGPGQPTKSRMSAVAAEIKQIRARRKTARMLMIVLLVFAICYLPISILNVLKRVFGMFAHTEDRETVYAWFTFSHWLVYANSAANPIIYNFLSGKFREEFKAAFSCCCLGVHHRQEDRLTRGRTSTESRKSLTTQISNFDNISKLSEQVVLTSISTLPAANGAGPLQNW
Sequence of Glycogen synthase kinase-3 alpha (P49840 whole entry): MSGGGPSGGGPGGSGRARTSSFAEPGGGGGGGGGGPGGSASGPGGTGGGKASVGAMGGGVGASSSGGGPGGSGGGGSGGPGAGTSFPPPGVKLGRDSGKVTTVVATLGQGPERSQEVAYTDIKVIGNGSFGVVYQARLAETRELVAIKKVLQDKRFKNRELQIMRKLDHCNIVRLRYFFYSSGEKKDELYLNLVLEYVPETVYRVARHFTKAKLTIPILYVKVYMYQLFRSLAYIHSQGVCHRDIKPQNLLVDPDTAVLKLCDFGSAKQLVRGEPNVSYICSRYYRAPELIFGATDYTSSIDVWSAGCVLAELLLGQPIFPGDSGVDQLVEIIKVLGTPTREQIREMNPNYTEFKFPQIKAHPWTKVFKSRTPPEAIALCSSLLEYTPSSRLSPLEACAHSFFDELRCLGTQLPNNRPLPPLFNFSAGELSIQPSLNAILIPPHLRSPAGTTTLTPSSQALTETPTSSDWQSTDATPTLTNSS
Sequence of Activin receptor type-1 (Q04771 whole entry): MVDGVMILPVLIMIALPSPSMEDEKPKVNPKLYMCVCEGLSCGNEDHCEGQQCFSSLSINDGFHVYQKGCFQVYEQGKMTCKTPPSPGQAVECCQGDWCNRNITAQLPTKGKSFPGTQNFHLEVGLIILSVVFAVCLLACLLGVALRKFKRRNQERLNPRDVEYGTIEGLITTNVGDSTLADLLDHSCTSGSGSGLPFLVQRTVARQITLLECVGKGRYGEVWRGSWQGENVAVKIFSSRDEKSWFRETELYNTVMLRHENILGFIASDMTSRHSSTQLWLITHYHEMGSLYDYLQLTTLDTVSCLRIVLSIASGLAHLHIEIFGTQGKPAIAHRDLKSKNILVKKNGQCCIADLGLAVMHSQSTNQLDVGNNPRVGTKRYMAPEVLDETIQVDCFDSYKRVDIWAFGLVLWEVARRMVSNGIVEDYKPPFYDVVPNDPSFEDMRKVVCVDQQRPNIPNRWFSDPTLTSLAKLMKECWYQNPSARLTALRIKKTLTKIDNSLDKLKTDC
Sequence of Glycogen synthase kinase-3 beta (P49841 whole entry): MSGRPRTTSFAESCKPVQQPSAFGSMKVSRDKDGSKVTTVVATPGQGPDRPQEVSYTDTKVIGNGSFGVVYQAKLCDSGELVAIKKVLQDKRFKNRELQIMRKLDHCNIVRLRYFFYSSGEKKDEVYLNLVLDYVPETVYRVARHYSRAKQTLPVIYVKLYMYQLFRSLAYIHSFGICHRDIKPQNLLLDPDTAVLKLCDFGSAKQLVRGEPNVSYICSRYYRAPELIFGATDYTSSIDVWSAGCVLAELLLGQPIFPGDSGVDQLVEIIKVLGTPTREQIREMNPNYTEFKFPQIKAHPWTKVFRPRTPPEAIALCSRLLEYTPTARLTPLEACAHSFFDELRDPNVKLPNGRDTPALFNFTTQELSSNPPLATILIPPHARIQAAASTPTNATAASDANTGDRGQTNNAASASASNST
Sequence of Cyclin-dependent kinase 5/CDK5 activator 1 (Q00535 whole entry): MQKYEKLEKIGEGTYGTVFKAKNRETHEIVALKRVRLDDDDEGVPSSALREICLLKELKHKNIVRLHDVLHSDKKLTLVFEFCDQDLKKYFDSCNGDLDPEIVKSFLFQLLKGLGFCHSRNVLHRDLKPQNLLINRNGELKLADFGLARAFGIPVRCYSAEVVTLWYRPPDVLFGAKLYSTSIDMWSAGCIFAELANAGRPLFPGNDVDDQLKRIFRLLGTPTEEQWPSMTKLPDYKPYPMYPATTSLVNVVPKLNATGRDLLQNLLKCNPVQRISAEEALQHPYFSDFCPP
Sequence of Cyclin-dependent kinase 5/CDK5 activator 1 (Q15078 whole entry, further chain): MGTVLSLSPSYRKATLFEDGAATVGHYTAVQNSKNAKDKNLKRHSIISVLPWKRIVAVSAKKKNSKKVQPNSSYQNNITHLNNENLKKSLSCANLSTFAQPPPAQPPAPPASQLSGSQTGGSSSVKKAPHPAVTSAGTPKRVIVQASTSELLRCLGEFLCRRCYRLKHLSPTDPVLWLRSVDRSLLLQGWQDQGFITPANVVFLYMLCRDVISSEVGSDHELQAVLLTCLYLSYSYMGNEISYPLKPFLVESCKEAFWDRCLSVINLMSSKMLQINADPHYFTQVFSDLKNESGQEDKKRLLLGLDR

**Q.** For `CCc1cc2c(SCC(=O)N(CC)c3c(N)n(Cc4ccccc4)c(=O)[nH]c3=O)ncnc2s1`, which IC50 (Orexin receptor type 2 [1]) is on record?
**A.** 1.71 µM (active)

**Q.** And the IC50 (Orexin receptor type 2 [2])?
**A.** 31.5 µM (inactive)

**Q.** What about the IC50 [3] of the same molecule?
**A.** 6.12 µM (active)

**Q.** And the IC50 (CHO-K1)?
**A.** > 66.2 µM (inactive)

**Q.** What about the IC50 [4] of the same molecule?
**A.** 0.34 µM (active)

**Q.** And the IC50 [5]?
**A.** > 49.8 µM (inactive)

**Q.** With `c1ccc(Cn2c[n+](Cc3ccccc3)c3ccccc32)cc1` as the molecule, how does the EC50 [6] read?
**A.** 5.76 µM (active)

**Q.** For `Nc1nc(Nc2ccccc2)nc(NC2CCCCC2)c1[N+](=O)[O-]`, which AC50 [7] is on record?
**A.** 1.04 µM (active)

**Q.** What about the AC50 [8] of the same molecule?
**A.** 2.36 µM (active)

**Q.** And the EC50 [9]?
**A.** 6.85 µM (active)

**Q.** What about the AC50 [10] of the same molecule?
**A.** 2.6 µM (active)

**Q.** What about the EC50 (Streptokinase A) of the same molecule?
**A.** > 150 µM (not active)

**Q.** And the EC50 (Streptococcus)?
**A.** 8.07 µM (active)

**Q.** And the AC50 [11]?
**A.** 4.62 µM (active)

**Q.** Which Ki (Activin receptor type-1) does the source give for `O=C(Nc1cccc(C(F)(F)F)n1)Nc1ccnc2cc(F)ccc12` here?
**A.** 1.26 µM (active)

**Q.** What about the Ki [12] of the same molecule?
**A.** 2.51 µM (active)
